According to ChEMBL document CHEMBL3045711, “Neonicotinoid insecticides: oxidative stress in planta and metallo-oxidase inhibition” (J Agric Food Chem, 2011):

Columns and labels:
Aldehyde oxidase 1 = molecular target: T1, Aldehyde oxidase 1 (Oryctolagus cuniculus, UniProt P80456); assay type: ADME, tissue-based, Liver, Cytosol
T1 sequence (P80456 whole entry): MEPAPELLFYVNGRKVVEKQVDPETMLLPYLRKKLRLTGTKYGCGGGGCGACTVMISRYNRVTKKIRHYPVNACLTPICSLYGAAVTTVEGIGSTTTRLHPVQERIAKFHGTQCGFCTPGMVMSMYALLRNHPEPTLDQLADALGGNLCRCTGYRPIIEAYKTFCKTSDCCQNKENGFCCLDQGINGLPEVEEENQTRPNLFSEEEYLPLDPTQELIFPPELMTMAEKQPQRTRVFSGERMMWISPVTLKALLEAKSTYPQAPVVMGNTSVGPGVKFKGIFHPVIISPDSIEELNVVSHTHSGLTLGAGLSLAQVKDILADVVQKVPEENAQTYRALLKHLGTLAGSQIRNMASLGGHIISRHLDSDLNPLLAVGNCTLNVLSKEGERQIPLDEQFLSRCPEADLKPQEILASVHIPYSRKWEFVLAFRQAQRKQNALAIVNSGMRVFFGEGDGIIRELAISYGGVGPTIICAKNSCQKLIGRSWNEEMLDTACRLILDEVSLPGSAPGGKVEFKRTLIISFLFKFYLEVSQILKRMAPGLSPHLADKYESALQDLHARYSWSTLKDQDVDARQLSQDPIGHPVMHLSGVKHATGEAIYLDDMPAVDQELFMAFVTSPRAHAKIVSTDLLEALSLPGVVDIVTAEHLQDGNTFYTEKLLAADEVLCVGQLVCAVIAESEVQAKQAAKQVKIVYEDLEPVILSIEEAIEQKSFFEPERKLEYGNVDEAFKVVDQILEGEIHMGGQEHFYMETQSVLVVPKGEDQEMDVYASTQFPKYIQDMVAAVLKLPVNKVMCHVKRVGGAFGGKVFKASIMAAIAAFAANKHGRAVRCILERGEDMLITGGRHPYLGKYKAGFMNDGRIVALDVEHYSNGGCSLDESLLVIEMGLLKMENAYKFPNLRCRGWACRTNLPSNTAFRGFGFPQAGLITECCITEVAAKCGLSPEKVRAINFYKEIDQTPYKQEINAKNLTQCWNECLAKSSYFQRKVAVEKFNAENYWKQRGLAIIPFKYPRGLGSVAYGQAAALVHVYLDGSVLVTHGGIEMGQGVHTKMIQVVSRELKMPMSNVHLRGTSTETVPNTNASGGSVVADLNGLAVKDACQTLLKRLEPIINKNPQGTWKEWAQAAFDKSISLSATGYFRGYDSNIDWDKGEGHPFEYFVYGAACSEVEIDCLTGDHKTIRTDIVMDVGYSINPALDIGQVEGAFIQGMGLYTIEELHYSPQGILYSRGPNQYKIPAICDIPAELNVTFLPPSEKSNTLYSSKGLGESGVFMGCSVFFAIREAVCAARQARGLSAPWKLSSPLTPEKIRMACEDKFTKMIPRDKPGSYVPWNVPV
Description: Inhibition of Oryctolagus cuniculus (rabbit) AOX in liver cytosol

Tyrosinase = molecular target: T2, Tyrosinase (Agaricus bisporus, UniProt O42713)
T2 sequence (O42713 whole entry): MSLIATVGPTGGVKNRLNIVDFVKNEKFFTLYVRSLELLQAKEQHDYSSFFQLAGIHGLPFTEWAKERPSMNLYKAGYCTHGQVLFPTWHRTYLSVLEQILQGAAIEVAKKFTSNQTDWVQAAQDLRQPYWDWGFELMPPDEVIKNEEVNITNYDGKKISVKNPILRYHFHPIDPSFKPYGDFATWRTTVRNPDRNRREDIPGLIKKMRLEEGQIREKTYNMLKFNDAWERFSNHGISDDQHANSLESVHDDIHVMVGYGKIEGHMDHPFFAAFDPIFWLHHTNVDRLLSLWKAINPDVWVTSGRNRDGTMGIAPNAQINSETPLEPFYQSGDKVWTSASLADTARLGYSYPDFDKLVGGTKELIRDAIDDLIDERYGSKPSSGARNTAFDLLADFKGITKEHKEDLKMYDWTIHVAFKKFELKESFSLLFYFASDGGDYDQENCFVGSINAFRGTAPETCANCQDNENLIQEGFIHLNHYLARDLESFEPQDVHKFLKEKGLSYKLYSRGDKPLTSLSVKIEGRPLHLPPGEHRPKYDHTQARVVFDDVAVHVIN
Description: Inhibition of Agaricus bisporus (mushroom) tyrosinase

Catalase = molecular target: T3, Catalase (Bos taurus, UniProt P00432); assay type: ADME, tissue-based, Liver
T3 sequence (P00432 whole entry): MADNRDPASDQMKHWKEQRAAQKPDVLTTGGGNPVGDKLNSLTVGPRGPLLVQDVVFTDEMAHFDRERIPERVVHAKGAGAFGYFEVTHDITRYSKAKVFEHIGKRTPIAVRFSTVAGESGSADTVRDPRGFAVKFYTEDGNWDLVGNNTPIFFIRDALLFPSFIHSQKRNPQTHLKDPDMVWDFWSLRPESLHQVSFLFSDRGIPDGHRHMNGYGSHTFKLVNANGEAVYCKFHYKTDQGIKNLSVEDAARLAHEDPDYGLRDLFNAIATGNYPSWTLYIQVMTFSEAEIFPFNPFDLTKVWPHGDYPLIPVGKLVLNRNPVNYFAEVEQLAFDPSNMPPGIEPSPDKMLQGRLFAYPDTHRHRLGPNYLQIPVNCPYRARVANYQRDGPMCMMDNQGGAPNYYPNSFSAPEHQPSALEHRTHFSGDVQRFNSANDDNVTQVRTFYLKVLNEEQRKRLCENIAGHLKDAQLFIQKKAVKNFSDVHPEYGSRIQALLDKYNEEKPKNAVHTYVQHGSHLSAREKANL
Description: Inhibition of Bos taurus (bovine) CAT in liver

Spinacia oleracea = assay: Phytotoxicity against Spinacia oleracea (spinach) seedlings assessed as lesions at 100 ppm after 9 days; assay type: organism-based; conditions: in vivo, 216 h

With O=Cc1cnc(Cl)s1 the IC50 (Aldehyde oxidase 1) was 360 µM and the IC50 (Tyrosinase; read-out: IC50) was 64 µM.
In the case of O=C(O)c1cnc(Cl)s1, the IC50 (Catalase) is reported as over 1000 µM, the IC50 (Aldehyde oxidase 1) is reported as over 1000 µM and the IC50 (Tyrosinase; read-out: IC50) is reported as over 1000 µM.
O=C(O)C1CCOC1 (stereo not drawn) was tested, and the IC50 (Catalase) was over 1000 µM, the IC50 (Aldehyde oxidase 1) was over 1000 µM and the IC50 (Tyrosinase; read-out: IC50) was over 1000 µM.
Compound O=C(O)c1ccc(Cl)cc1O has an IC50 (Catalase) of over 1000 µM, an IC50 (Aldehyde oxidase 1) of over 1000 µM and an IC50 (Tyrosinase; read-out: IC50) of 520 µM.
CCN(Cc1ccc(Cl)nc1)/C(=C/[N+](=O)[O-])NC was tested, and the IC50 (Aldehyde oxidase 1) was over 1000 µM and the IC50 (Tyrosinase; read-out: IC50) was over 1000 µM.
C/C(=N\C#N)N(C)Cc1ccc(Cl)nc1 was tested, and the IC50 (Aldehyde oxidase 1) was over 1000 µM, the IC50 (Tyrosinase; read-out: IC50) was 1740 µM and the Activity (Spinacia oleracea) was “Toxic”.
Compound O=Cc1cccnc1Cl [2-CHLORONICOTINALDEHYDE] has an IC50 (Aldehyde oxidase 1) of 350 µM and an IC50 (Tyrosinase; read-out: IC50) of over 1000 µM.
O=C(O)c1cccnc1S [2-MERCAPTONICOTINIC ACID] showed an IC50 (Catalase) of over 1000 µM, an IC50 (Aldehyde oxidase 1) of over 1000 µM and an IC50 (Tyrosinase; read-out: IC50) of 80 µM.
Compound O=Cc1ccc(O)cc1 [4-HYDROXYBENZALDEHYDE] has an IC50 (Aldehyde oxidase 1) of 570 µM and an IC50 (Tyrosinase; read-out: IC50) of 770 µM.
O=Cc1ccc(Cl)nc1 [6-CHLORONICOTINALDEHYDE] showed an IC50 (Aldehyde oxidase 1) of 720 µM and an IC50 (Tyrosinase; read-out: IC50) of 770 µM.
O=C(O)c1ccc(Cl)nc1 [6-CHLORONICOTINIC ACID] showed an IC50 (Catalase) of over 1000 µM, an IC50 (Aldehyde oxidase 1) of over 1000 µM and an IC50 (Tyrosinase; read-out: IC50) of over 1000 µM.
O=C(O)c1ccc(S)nc1 [6-MERCAPTONICOTINIC ACID] gave an IC50 (Catalase) of over 1000 µM, an IC50 (Aldehyde oxidase 1) of over 1000 µM and an IC50 (Tyrosinase; read-out: IC50) of 42 µM.
Compound Oc1ncnc2[nH]ncc12 [ALLOPURINOL] has an IC50 (Aldehyde oxidase 1) of over 1000 µM and an IC50 (Tyrosinase; read-out: IC50) of over 1000 µM.
With O=Cc1ccccc1 [BENZALDEHYDE] the IC50 (Aldehyde oxidase 1) was 660 µM.
O=C(O)c1ccccc1 [BENZOIC ACID] was tested, and the IC50 (Catalase) was over 1000 µM, the IC50 (Aldehyde oxidase 1) was over 1000 µM and the IC50 (Tyrosinase; read-out: IC50) was 270 µM.
With CN/C(=N\[N+](=O)[O-])NCc1cnc(Cl)s1 [CLOTHIANIDINE] the IC50 (Aldehyde oxidase 1) was over 1000 µM, the IC50 (Tyrosinase; read-out: IC50) was over 1000 µM and the Activity (Spinacia oleracea) was “Toxic”.
In the case of CN/C(=N/CC1CCOC1)N[N+](=O)[O-] (stereo not drawn) [DINOTEFURAN], the IC50 (Aldehyde oxidase 1) is reported as over 1000 µM and the IC50 (Tyrosinase; read-out: IC50) is reported as over 1000 µM.
O=Cc1ccoc1 [FURAN-3-CARBALDEHYDE] gave an IC50 (Aldehyde oxidase 1) of 260 µM and an IC50 (Tyrosinase; read-out: IC50) of 15 µM.
O=Cc1ccco1 [FURFURAL] showed an IC50 (Aldehyde oxidase 1) of 700 µM and an IC50 (Tyrosinase; read-out: IC50) of 43 µM.
With O=C(O)c1cccnc1 [NIACIN] the IC50 (Tyrosinase; read-out: IC50) was over 1000 µM.
O=Cc1cccnc1 [NICOTINALDEHYDE] showed an IC50 (Aldehyde oxidase 1) of 600 µM and an IC50 (Tyrosinase; read-out: IC50) of 28 µM.
N=C(N)NN [PIMAGEDINE] gave an IC50 (Catalase) of 500 µM.
For O=C(c1ccc(OCCN2CCCCC2)cc1)c1c(-c2ccc(O)cc2)sc2cc(O)ccc12 [RALOXIFENE], the IC50 (Aldehyde oxidase 1) was 1530 µM and the IC50 (Tyrosinase) was “ND(Insoluble)”.
Compound O=CC1CCOC1 (stereo not drawn) [TETRAHYDROFURAN-3-CARBALDEHYDE] has an IC50 (Aldehyde oxidase 1) of 360 µM and an IC50 (Tyrosinase; read-out: IC50) of over 1000 µM.
With CN1COCN(Cc2cnc(Cl)s2)/C1=N\[N+](=O)[O-] [THIAMETHOXAM] the IC50 (Aldehyde oxidase 1) was over 1000 µM and the IC50 (Tyrosinase; read-out: IC50) was over 1000 µM.
Compound O=Cc1cncs1 [THIAZOLE-5-CARBALDEHYDE] has an IC50 (Aldehyde oxidase 1) of 890 µM and an IC50 (Tyrosinase; read-out: IC50) of 7 µM.
